Key:
[1] = system: H2O2-induced ODD in breast cancer cell lines with defective BER; assay: Alkaline comet assay modified for detection of oxidative lesions (FPG); type: cell-based, human; conditions: pretreatment, compared to undamaged control
Description: (§1) Cells were collected and embedded into CometAssay® LM Agarose (Trevigen) and placed on CometAssay® HT Slides (Trevigen) in duplicate. Cells were lysed at 4° C. in Lysis Buffer (Trevigen) for >24 hours. Slides were treated with or without FPG enzyme at 37° C. and 5% CO2 for 45 minutes to nick DNA at sites of ODD and then subjected to alkaline treatment at 4° C. for 40 minutes to denature DNA. Slides underwent electrophoresis under alkaline conditions to separate intact from damaged DNA. Following neutralization, DNA was stained using SYBR® green I and visualized as a comet in shape by fluorescent microscopy under 20× objective. […] CometScore software was used to quantify % DNA in Tail. Strand breaks were determined by % DNA in Tail in FPG-minus samples. ODD was determined by subtracting % DNA in Tail in FPG-minus samples from % DNA in Tail in FPG-plus samples.

[2] = system: BER-defective and BER-proficient cells; assay: Alkaline comet assay, strand breaks; type: cell-based; conditions: compared to the vehicle control; H2O2 positive control
Description: as §1

[3] = system: SUM149PT cells; assay: Hoechst live-cell staining (cell number); type: cell-based, human; conditions: concentrations up to 40 μM
Description: (§2) Cells were treated with acetohexamide for 48 hours in quadruplicate and then incubated with 2 μg/ml Hoechst 33358 live-cell dye for 20 minutes. Four representative fields for each replicate were imaged by the ImageXpress 5000A high-content imager (Molecular Devices). Nuclei were counted using MetaMorph® software (Molecular Devices) and expressed as a percentage relative to the vehicle control (DMSO).

[4] = system: other BER-defective breast cancer cell lines; assay: Hoechst live-cell staining (cell number); type: cell-based, human; conditions: 20 μM
Description: as §2

[5] = system: 8oxoG lesions in breast cancer cell lines with defective BER; assay: 8oxoG lesions (OxyFlow Kit); type: cell-based, human; conditions: time-dependent
Description: Cells were analyzed using the OxyFlow™ Kit (Hemogenix) according to the manufacturer's instructions.

[6] = system: BER of ODD in MCF7 cells (wild-type BRCA1, BER-proficient); assay: DNA repair assay (oxidatively damaged GFP reporter gene), follow-up; type: cell-based, human; conditions: for BER: 20 μM, MCF7, vs vehicle; for repair compared to vehicle control (SAR mini-analysis): BER-proficient MCF7 cells
Description: (§3) Human breast cancer cell lines that were deficient in BER (HCC1143, MDAMB468, HCC1937, and SUM149) or proficient in BER (BT474 and MCF7) were cultured according to American Type Culture Collection guidelines, with the exception of SUM149, which was cultured according to Asterand plc guidelines. Brca1^+/+ and Brca1^-/- mouse mammary epithelial […] previously described. Cells were treated with DMSO (vehicle control) or acetohexamide or benserazide as indicated for 24 hours at 37° C. and 5% CO2. The DNA repair assay was carried out as described in the examples below. Where indicated, BER (base excision mode of DNA repair) activity was expressed relative to the control (DMSO).

[7] = system: BER of ODD in BT474 cells (wild-type BRCA1); assay: as above; type: cell-based, human; conditions: 20 μM, BT474, vs vehicle
Description: as §3

[8] = system: BER of ODD in HCC1937 cells (mutant BRCA1); assay: as above; type: cell-based, human; conditions: 20 μM, HCC1937, vs vehicle
Description: as §3

[9] = system: BER of ODD in SUM149 cells (mutant BRCA1, BER-defective); assay: as above; type: cell-based, human; conditions: for BER: SUM149, vs vehicle; for repair of oxidatively damaged GFP reporter gene, dose-response / BER compared to the vehicle control (SAR mini-analysis): SUM149PT cells; for repair of oxidatively damaged GFP reporter gene, dose-response: 24 hours treatment; for relative BER activity: relative to the control (DMSO); for repair activity compared to the vehicle control: SUM149
Description: as §3

[10] = system: BER of ODD in SUM149PT cells; assay: High-throughput chemical screen with cell-based DNA repair assay (oxidatively damaged GFP reporter, host-cell reactivation); conditions: for Priority score (summed priority score): sum of assigned priority scores, range 1-10, 10 = highest priority; for identified as hit in the screen (enhanced BER of ODD): LOPAC1280 library, summed priority score above 1;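 on all read-outs here: SUM149PT cells pretreated 24 h with compound, then given photodynamically oxidized adenoviral GFP reporter, 24 h host-cell reactivation, GFP read as repair, undamaged reporter positive and damaged reporter negative control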
[11] = system: SUM149PT and other cell lines; assay: MTT assay (cell viability); type: cell-based, human; conditions: concentrations up to 1 mM, 72 hours
[12] = system: BRCA1-mutant/deficient cells; assay: Soft agar colony formation assay (in vitro tumorigenesis); type: cell-based, human; conditions: 20 μM benserazide vs 1 μM tamoxifen and vehicle
Description: BRCA1 wild-type (MCF7) and mutant (HCC1937) cells (FIG. 14A) as well as MCF7 cells stably transduced with shRNA to BRCA1 or non-targeting control (FIG. 14B) were treated with vehicle control, 20 μM benserazide, or 1 μM tamoxifen and subjected to the soft agar colony formation assay, i.e. the standard assay for in vitro tumorigenesis. Colony formation represents tumorigenic potential. Tamoxifen is the current FDA-approved chemoprevention agent for breast cancer and a therapeutically-equivalent dose was used for comparison.

[13] = system: BRCA1 wild-type (MCF7) and mutant (HCC1937) cells; assay: Trypan blue exclusion assay (cell viability); type: cell-based, human; conditions: treated simultaneously with the colony formation assay
Description: In FIG. 14C, BRCA1 wild-type (MCF7) and mutant (HCC1937) cells were simultaneously treated and then analyzed for cell viability by the trypan blue exclusion assay.

[14] = system: HCC1937 cells; assay: Mouse xenograft model of in vivo tumorigenesis (chemoprevention)
Description: For in vivo tumorigenesis, we utilized a mouse xenograft model that began treatment with the DNA repair-activating agent 24 hours prior to inoculation of HCC1937 cells into the mammary fat pad. Treatment with vehicle control, 50 mg/kg benserazide, or 250 mg/kg benserazide continued daily for up to 60 days while monitoring for tumor formation by palpitation. After the 60 days (i.e. study endpoint), serum was collected for analysis of 8oxodG levels, tumors (if present) were excised and weighed, and anatomy was analyzed for metastasis.

[15] = system: MCF7 cells transduced with non-targeting control; assay: Soft agar colony formation assay; type: cell-based, human
Description: (§4) […] Colony formation represents tumorigenic potential. Tamoxifen is the current FDA-approved chemoprevention agent for breast cancer and a therapeutically-equivalent dose was used for comparison.
(§5) Benserazide and carbidopa were also both included among the compounds screened for BER-enhancing activity (FIG. 3A-3B). […] Therefore, we first validated our screening data by subjecting the mutant BRCA1-containing SUM149 cell line to the BER assay following pre-treatment with vehicle control or carbidopa.

[16] = system: MCF7 cells transduced with shRNA to BRCA1; assay: Soft agar colony formation assay; type: cell-based, human
Description: as §4, §5

[17] = study endpoint 60 days, dose response

Q: Which results are given for `CC(=O)c1ccc(S(=O)(=O)NC(=O)NC2CCCCC2)cc1` [Acetohexamide]?
A: H2O2-induced ODD [1]: decreased H2O2-induced ODD to levels similar to those of the undamaged control; DNA strand breaks [2]: did not significantly induce DNA strand breaks; number of cells (Hoechst 33342 staining) [3]: did not affect the number of SUM149PT cells; cell number (Hoechst 33342 staining) [4]: nor did it affect the cell number; basal levels of 8oxoG lesions [5]: decreased basal levels of 8oxoG lesions; BER [6]: no effect on BER; BER [7]: no effect on BER; BER [8]: statistically significant increase in BER; BER ([9]; 20 μM): statistically significant increase in BER; repair of oxidatively damaged GFP reporter gene, dose-response [9]: dose-response increase in repair of an oxidatively damaged GFP reporter gene; relative BER activity [9]: 1.68±0.13; EC50 ([10]; read-out: EC50 (image analysis), dose-response increase in GFP expression by imaging, 20 μM to 0.3 μM two-fold dilutions): 42.4 µM; Hoechst-positive cells ([10]; screening data by imaging, compared to negative control): 87.8%; Priority score (summed priority score) [10]: 7; cell viability (MTT) [11]: did not affect the cell viability

Q: For `Cc1ccc(S(=O)(=O)NC(=O)NC2CCCCC2)cc1` [BA-4], which “repair compared to vehicle control (SAR mini-analysis)” value (shortened to “repair compared to vehicle control”) [6] is on record?
A: none of the four analogs significantly increased repair

Q: What about the “BER compared to the vehicle control (SAR mini-analysis)” value (“BER compared to the vehicle control” below) [9] of the same compound?
A: significantly increased BER

Q: Which “repair compared to vehicle control” value [6] does the source give for `CCCCNC(=O)NS(=O)(=O)c1ccccc1` [BA-5] here?
A: none of the four analogs significantly increased repair

Q: And the “BER compared to the vehicle control” value [9]?
A: increased BER in these cells but without statistical significance

Q: Which “repair compared to vehicle control” value [6] does the source give for `CC(C)CCNC(=O)NS(=O)(=O)c1ccccc1` [BA-9] here?
A: none of the four analogs significantly increased repair

Q: What about the “BER compared to the vehicle control” value [9] of the same compound?
A: significantly increased BER

Q: What does the source list for `Cc1cnc(C(=O)NCCc2ccc(S(=O)(=O)NC(=O)NC3CCCCC3)cc2)cn1` [Glipizide, N-(4-[N-(cyclohexylcarbamoyl)sulfamoyl]phenethyl)-5-methylpyrazine-2-carboxamide]?
A: repair compared to vehicle control (SAR mini-analysis) [6]: none of the four analogs significantly increased repair; BER compared to the vehicle control (SAR mini-analysis) [9]: significantly increased BER; relative BER activity [9]: 1.22±0.12; identified as hit in the screen (enhanced BER of ODD) [10]: identified as a hit; Priority score (summed priority score) [10]: 2

Q: Which results are given for `NC(CO)C(=O)NNCc1ccc(O)c(O)c1O` (stereo not shown) [benserazide, 2-amino-3-hydroxy-N′-[(2,3,4-trihydroxyphenyl)methyl]propanehydrazide]?
A: in vitro tumorigenic potential (colony formation) [12]: prevented in vitro tumorigenesis; in vitro tumorigenic potential (colony formation) ([12]; listed as Benserazide): superior to tamoxifen at reducing in vitro tumorigenic potential; cell viability (trypan blue exclusion) [13]: not due to a decrease in cell viability; BER [6]: no effect on BER; BER [7]: no effect on BER; BER [8]: statistically significant increase in BER; BER ([9]; 20 μM): statistically significant increase in BER; repair of oxidatively damaged GFP reporter gene, dose-response [9]: dose-response increase in repair of an oxidatively-damaged GFP reporter gene; tumor formation over time ([14]; 50 or 250 mg/kg daily up to 60 days): delayed tumor formation over time; percentage of tumor-free mice ([14]; 50 or 250 mg/kg daily up to 60 days, started 24 hours prior to inoculation): increased the percentage of tumor-free mice in a dose-response manner; metastasis ([14]; both concentrations (50 and 250 mg/kg), unlike vehicle control): prevented metastasis; serum levels of 8oxodG [14, 17]: increase serum levels of 8oxodG; tumor weights [14, 17]: decrease tumor weights

Q: Which results are given for `C[C@@](Cc1ccc(O)c(O)c1)(NN)C(=O)O` [carbidopa, Carbidopa]?
A: colony formation compared to vehicle control ([15]; 10 μM): no significant effect on colony formation; colony formation compared to vehicle control ([15]; 20 μM): no significant effect on colony formation; colony formation compared to vehicle control ([16]; 10 μM): no significant effect on colony formation; colony formation compared to vehicle control ([16]; 20 μM): no significant effect on colony formation; repair activity compared to the vehicle control ([9]; 10 μM): no effect on repair activity; repair activity compared to the vehicle control ([9]; 20 μM): no effect on repair activity; identified as hit in the screen (enhanced BER of ODD) [10]: did not identify carbidopa as a hit

From patent US10188617B2, “Modulation of cellular DNA repair activity to intercept malignancy” (THE BOARD OF TRUSTEES OF THE LELAND STANFORD JUNIOR …, priority 2013, dated 2019)
